pIC50: −log10 of the molar value.
Assays:
[1] = tested on: KB nasopharyngeal carcinoma cells; assay: Cell proliferation assay, KB tumor cells; type: cell-based, human; conditions: for pIC50: Homo sapiens, 96 h, 0-1000 nM, mean (standard error), 3-5 experiments
From the text: (§1) For the tumor cells, except the des-methyl compound 4 with IGROV1 cells, all compounds were inhibitory. […]
(§2) Reagents for biological studies. Leucovorin [(6R,S) 5-formyl tetrahydrofolate] and methotrexate (MTX) was provided by the Drug Development Branch, National Cancer Institute, Bethesda, MD. Other chemicals were obtained from commercial sources in the highest available purities. Pemetrexed (PMX; 1) [N-{4-[2- (2-amino-3,4-dihydro-4-oxo-7H-pyrrolo[2,3-d]pyrimidin-5-yl)ethyl]benzoyl-L-glutamic acid] (Alimta) was purchased from LC Laboratories (Woburn, MA). The syntheses of compounds 2 and 3 were previously described.7, 8 Additional chemicals were purchased from commercial sources in the highest available purities. […]
(§3) KB nasopharyngeal carcinoma cells were obtained from the American Type Culture Collection (Manassas, VA) and IGROV1 (NCI-IGROV1) (passage 5) ovarian adenocarcinoma cells13 were obtained from the Division of Cancer Treatment and Diagnosis, National Cancer Institute (Frederick, MD). Normal ovary cells immortalized with SV40 (IOSE 7576)14 were obtained from the Canadian OvCaRe Cell Bank […]
(§4) (Vancouver, B.C). IGROV1, KB and IOSE 7576 cells were cultured in complete FF-RPMI with 10% fetal bovine serum and 100 units/mL penicillin/100 μg/mL streptomycin, and 2 mM L-glutamine. Cell lines were tested for Mycoplasma by PCR using a Mycloplasma testing kit (Venor™ GeM Mycoplasma Detection Kit, Sigma). Frozen stocks were generated from authenticated Mycoplasma-free cultures.
(§5) For cell proliferation assays, CHO, KB, NCI-IGROV1 and IOSE 7576 cells were plated in 96-well dishes at densities ranging from 2500-5000 cells/well in 200 μL media and treated with a range of inhibitors spanning 0-1000 nM. Experiments with RT16, D4, IGROV1, IOSE 7576 and KB cells used folate-free RPMI 1640 (FF RPMI) media with 10% dialyzed fetal bovine serum and 100 units/mL penicillin/100 μg/mL streptomycin, supplemented with 2 nM leucovorin and 2 mM L-glutamine. FR-mediated drug uptake was assessed in parallel incubations including 200 nM folic acid. For R2/PCFT4, PC43-10 and R2 CHO cells, the medium was FF-RPMI supplemented with 10% dialyzed fetal bovine serum, 100 units/mL penicillin/100 μg/mL streptomycin, 25 nM leucovorin and 2 mM L-glutamine.
(§6) Cells were treated over a 96 h period at 37° C with 5% CO2 and relative cell numbers quantified using the CellTiter-blue cell viability assay (Promega, Madison, WI) and a fluorescence plate reader. Raw data were exported to Excel for analysis and the results were plotted using Graphpad Prism 6.0. Determinations of IC50s were made […]
assays have been previously described.7, 8, 11, 12, 15-20 […]
7, 8, 11, 12, 15-20 Inhibitory effects of the novel analogs on de novo thymidylate biosynthesis and de novo purine nucleotide biosynthesis were tested by incubating drugs with thymidine (10 μM) and adenosine (60 μM), respectively. Incubation with glycine (130 µM) was used to assess the potential involvement of mitochondrial C1 targeted agents.15 To identify multiple metabolic targets, metabolite additions were added in combination.7, 8, 11, 12, 15-19 Finally, to distinguish targeting between the folate-dependent purine biosynthetic enzymes glycinamide ribonucleotide formyltransferase (GARFTase) and 5-aminoimidazole-4-carboxamide (AICA) ribonucleotide formyltransferase (AICARFTase), co-incubation experiments were performed using AICA hydrochloride (320 μM). 7, 8, 11, 12, […]
(§7) Statistics. The biological data reflect at least three experimental replicates. All statistical comparisons were performed using unpaired t-tests. Biological data are presented as mean values +/- standard errors using data without transformation.

[2] = tested on: IOSE 7576 normal ovary cells; assay: Cell proliferation assay, IOSE 7576 normal ovary cells; type: cell-based, human; conditions: for pIC50: Homo sapiens, 96 h, 0-1000 nM, mean (standard error), 3-5 experiments
From the text: as §1, §2, §3, §4, §5, §6
assays have been previously described.7, 8, 11, 12, 15-20
Using KB cells, additional proliferation assays were performed with metabolite protection in folate- and glycine-free RPMI1640 with 10% dialyzed fetal bovine serum, 2 mM L-glutamine and antibiotics with 2 nM leucovorin to identify the targeted pathway and enzyme(s). 7, 8, 11, 12, 15-20 Inhibitory effects of the novel analogs on de novo thymidylate biosynthesis and de novo purine nucleotide biosynthesis were tested by incubating drugs with thymidine (10 μM) and adenosine (60 μM), respectively. Incubation with glycine (130 µM) was used to assess the potential involvement of mitochondrial C1 targeted agents.15 To identify multiple metabolic targets, metabolite additions were added in combination.7, 8, 11, 12, 15-19 Finally, to distinguish targeting between the folate-dependent purine biosynthetic enzymes glycinamide ribonucleotide formyltransferase (GARFTase) and 5-aminoimidazole-4-carboxamide (AICA) ribonucleotide formyltransferase (AICARFTase), co-incubation experiments were performed using AICA hydrochloride (320 μM). 7, 8, 11, 12, […]
as §7

Work on `Nc1nc2[nH]cc(CCc3ccc(C(=O)N[C@@H](CCC(=O)O)C(=O)O)s3)c2c(=O)[nH]1` [Compound 3] yielded a pIC50 [1] of 6.08 and a pIC50 [2] of 7.41.
For `Nc1nc2[nH]cc(CCc3ccc(C(=O)N[C@@H](CCC(=O)O)C(=O)O)c(F)c3)c2c(=O)[nH]1` [Compound 4], the pIC50 [1] was 7.11, the “inhibition of IOSE 7576 cells (in words)” value [2] was “inactive” and the pIC50 [2] was < 6.00.
For `Cc1[nH]c2nc(N)[nH]c(=O)c2c1CCCc1ccc(C(=O)N[C@@H](CCC(=O)O)C(=O)O)cc1` [Compound 6], the pIC50 [1] was 7.30, the “inhibition of IOSE 7576 cells (in words)” value [2] was “modestly inhibitory” and the pIC50 [2] was 6.08.
In the case of `Cc1[nH]c2nc(N)[nH]c(=O)c2c1CCc1ccc(C(=O)N[C@@H](CCC(=O)O)C(=O)O)s1` [Compound 7], the pIC50 [1] was 8.46, the “greater potency than the corresponding 6-desmethyl analogue 3, KB cells” value ([1]; KB cells, relative to compound 3) was 242 fold and the pIC50 [2] was < 6.00.
For `Cc1[nH]c2nc(N)[nH]c(=O)c2c1CCc1ccc(C(=O)N[C@@H](CCC(=O)O)C(=O)O)cc1` [Compound 5], the pIC50 [1] was 7.55 and the pIC50 [2] was < 6.00.
`Nc1nc2[nH]cc(CCc3ccc(C(=O)N[C@@H](CCC(=O)O)C(=O)O)cc3)c2c(=O)[nH]1` [Compound 1, reference compound] gave a pIC50 [1] of 8.00 and a pIC50 [2] of 6.20.
With `Cc1[nH]c2nc(N)[nH]c(=O)c2c1CCc1ccc(C(=O)N[C@@H](CCC(=O)O)C(=O)O)c(F)c1` [Compound 8] the pIC50 [1] was 6.46 and the pIC50 [2] was < 6.00.
`Nc1nc2[nH]cc(CCCc3ccc(C(=O)N[C@@H](CCC(=O)O)C(=O)O)cc3)c2c(=O)[nH]1` [Compound 2] gave a pIC50 [2] of 7.88.

From paper PMC10726441, “Discovery of Tumor-Targeted 6-Methyl Substituted Pemetrexed and Related Antifolates with Selective Loss of RFC Transport” (ACS Medicinal Chemistry Letters, 2023)
